Results as given in ChEMBL document CHEMBL1201862, “PubChem BioAssay data set” (2004).
Calls of active or inactive are those of the source.

Legend:
[1] = A Cell Based Secondary Assay To Explore Cytotoxicity of Compounds that Sensitize Mycobacterium Tuberculosis to Beta-Lactam Antibiotics.; type: functional
[2] = viability of HCT116 lacking mutant beta-catenin – cell-based, human colon tumor, dose response (AID 1045); type: functional;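 further: HCT116 colon tumor cells with beta catenin knocked out; cells exposed to compound for 60 hours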
[3] = viability of PTEN-deleted HCT116 cells – cell-based, HCT116 PTEN knockout, dose response (AID 1047); type: functional;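 further: HCT116 colon tumor cells with PTEN knocked out; cells exposed to compound for 60 hours before readout; potency for loss of cell viability measured by luminescence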
[4] = biological target: T1, Corticotropin-releasing factor receptor 2/Corticotropin-releasing factor-binding protein (Homo sapiens, UniProt P24387+Q13324); test: Dose Response confirmation of uHTS hits for small molecule antagonists of the CRF-binding protein and CRF-R2 receptor complex.; type: functional; conditions: read-out: IC50_Mean
T1 sequence (Q13324 whole entry): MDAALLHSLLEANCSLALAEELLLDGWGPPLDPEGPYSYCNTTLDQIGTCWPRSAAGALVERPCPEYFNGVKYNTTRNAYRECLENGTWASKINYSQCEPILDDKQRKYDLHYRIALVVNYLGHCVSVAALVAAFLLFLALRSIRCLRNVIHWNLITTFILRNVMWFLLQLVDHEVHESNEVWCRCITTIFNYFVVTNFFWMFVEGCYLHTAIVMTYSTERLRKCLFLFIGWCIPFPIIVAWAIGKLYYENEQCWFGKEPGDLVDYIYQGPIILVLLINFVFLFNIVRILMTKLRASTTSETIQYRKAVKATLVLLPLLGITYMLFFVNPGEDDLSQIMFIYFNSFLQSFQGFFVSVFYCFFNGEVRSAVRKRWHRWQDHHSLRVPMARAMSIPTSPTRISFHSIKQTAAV
T1 sequence (P24387 whole entry): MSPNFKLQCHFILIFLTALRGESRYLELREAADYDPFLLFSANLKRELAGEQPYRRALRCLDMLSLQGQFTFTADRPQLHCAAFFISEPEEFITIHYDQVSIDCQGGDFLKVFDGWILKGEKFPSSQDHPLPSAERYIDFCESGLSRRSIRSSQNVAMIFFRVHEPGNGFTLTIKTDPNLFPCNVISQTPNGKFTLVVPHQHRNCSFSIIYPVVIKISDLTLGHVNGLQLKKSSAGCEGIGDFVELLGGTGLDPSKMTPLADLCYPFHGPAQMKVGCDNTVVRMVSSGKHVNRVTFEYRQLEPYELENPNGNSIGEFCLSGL

[5] = blockers of CRF-binding protein–CRF-R2 complex – cell-based, uHTS hits, 384-well, dose response (AID 651639); type: functional, Homo sapiens; conditions: read-out: IC50_Mean
[6] = biological target: T1, Corticotropin-releasing factor receptor 2/Corticotropin-releasing factor-binding protein; test: activators of CRF receptor 2 with binding protein – uHTS hits, confirmation (AID 602473); type: functional; conditions: read-out: EC50_Mean
[7] = NIH-3T3 fibroblast cytotoxicity, dose response, cytotoxicity control, cell-based, fluorescence, Alamar Blue, secondary assay (AID 2327); type: functional;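 further: NIH-3T3 mouse fibroblasts cultured with fluconazole at 8 µg/mL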
[8] = Luminescence Cell-Based Dose Response HTS to Identify Inhibitors of 5'UTR Stem-Loop Driven Prion Protein mRNA Translation in H4 Neuroglioblastoma Cells. [Related pubchem assays: 1827 (Project Summary), 1813 (Primary HTS)]; type: functional
[9] = fluconazole-exposed Candida albicans growth modulators – fluorescence, retest, confirmation (AID 2467); type: functional, cell-based
[10] = luciferase reporter signal suppression in cells – H4 neuroglioma cells, luminescence, dose response (AID 1990); type: functional, cell-based
[11] = Trypanosoma cruzi growth suppression in host cells – NIH3T3 host cells, beta-gal luminescence, confirmation (AID 2044); type: functional, cell-based;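 further: intracellular parasites grown in NIH/3T3 mouse fibroblasts as host cells; luminescent beta-galactosidase reporter signal from transgenic T. cruzi replicating inside host cells; inhibitors lower the luminescence signal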
[12] = alpha-synuclein stem-loop luciferase translation blockers – H4 neuroglioma cells, luminescence, confirmation (AID 1988); type: functional, cell-based
[13] = NIH3T3 cell viability loss – ATP luminescence, mouse fibroblasts, counter-screen, dose response (AID 2010); type: functional, cell-based;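 further: cells exposed to compound for about 90 hours before reading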
[14] = Luminescence Cell-Based Dose Retest to Confirm Inhibitors of Cancer Stem Cells. [Related pubchem assays (depositor defined):AID2717, AID2721]; type: functional; conditions: Homo sapiens
Vero = test: cells; type: functional; conditions: Chlorocebus sabaeus
[15] = biological target: T2, Sentrin-specific protease 8 (Homo sapiens, UniProt Q96LD8); type: functional;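 further: luminescence read-out of SENP8 inhibition, dose-response confirmation following an ultra-high-throughput screen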
T2 sequence (Q96LD8 whole entry): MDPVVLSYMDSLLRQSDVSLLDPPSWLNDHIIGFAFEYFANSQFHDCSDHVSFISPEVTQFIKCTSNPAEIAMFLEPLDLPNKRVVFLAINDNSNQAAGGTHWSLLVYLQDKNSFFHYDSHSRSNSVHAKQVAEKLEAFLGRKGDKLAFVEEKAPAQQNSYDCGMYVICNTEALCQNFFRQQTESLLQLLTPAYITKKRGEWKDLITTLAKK

[16] = biological target: T3, Sentrin-specific protease 7 (Homo sapiens, UniProt Q9BQF6); type: functional;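 further: Luminescence-based dose-response confirmation of ultra-high-throughput screening hits, measuring inhibition of SENP7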
T3 sequence (Q9BQF6 whole entry): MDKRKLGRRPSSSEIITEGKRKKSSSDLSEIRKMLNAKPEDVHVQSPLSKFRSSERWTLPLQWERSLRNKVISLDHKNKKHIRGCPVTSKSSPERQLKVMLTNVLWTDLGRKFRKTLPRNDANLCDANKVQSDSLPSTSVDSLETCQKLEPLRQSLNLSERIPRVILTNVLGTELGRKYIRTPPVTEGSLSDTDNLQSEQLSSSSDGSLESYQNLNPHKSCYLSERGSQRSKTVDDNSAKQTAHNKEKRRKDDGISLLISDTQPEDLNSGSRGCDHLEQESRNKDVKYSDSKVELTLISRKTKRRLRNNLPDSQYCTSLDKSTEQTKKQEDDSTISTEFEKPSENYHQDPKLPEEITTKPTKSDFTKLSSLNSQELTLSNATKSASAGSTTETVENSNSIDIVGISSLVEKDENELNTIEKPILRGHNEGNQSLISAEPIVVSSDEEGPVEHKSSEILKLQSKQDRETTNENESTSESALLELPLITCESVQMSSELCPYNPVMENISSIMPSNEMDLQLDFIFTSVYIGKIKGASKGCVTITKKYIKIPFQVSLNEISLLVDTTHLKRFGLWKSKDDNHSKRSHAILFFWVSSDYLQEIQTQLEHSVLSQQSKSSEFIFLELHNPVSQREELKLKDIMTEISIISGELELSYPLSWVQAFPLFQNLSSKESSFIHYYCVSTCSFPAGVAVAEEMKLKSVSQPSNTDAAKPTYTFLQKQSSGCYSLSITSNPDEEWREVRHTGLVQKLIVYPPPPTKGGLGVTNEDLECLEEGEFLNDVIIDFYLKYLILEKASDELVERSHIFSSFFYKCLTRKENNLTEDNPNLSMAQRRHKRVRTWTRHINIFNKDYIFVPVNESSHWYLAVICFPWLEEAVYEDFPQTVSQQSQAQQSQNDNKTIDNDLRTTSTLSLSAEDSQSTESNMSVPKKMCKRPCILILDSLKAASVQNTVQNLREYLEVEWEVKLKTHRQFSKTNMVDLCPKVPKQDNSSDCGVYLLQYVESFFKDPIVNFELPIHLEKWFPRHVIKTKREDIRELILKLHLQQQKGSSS

[17] = biological target: T4, Sentrin-specific protease 6 (Homo sapiens, UniProt Q9GZR1); type: functional;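 further: Luminescence-based dose-response confirmatory assay of SENP6 inhibition, following up an ultra-high-throughput screen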
T4 sequence (Q9GZR1 whole entry): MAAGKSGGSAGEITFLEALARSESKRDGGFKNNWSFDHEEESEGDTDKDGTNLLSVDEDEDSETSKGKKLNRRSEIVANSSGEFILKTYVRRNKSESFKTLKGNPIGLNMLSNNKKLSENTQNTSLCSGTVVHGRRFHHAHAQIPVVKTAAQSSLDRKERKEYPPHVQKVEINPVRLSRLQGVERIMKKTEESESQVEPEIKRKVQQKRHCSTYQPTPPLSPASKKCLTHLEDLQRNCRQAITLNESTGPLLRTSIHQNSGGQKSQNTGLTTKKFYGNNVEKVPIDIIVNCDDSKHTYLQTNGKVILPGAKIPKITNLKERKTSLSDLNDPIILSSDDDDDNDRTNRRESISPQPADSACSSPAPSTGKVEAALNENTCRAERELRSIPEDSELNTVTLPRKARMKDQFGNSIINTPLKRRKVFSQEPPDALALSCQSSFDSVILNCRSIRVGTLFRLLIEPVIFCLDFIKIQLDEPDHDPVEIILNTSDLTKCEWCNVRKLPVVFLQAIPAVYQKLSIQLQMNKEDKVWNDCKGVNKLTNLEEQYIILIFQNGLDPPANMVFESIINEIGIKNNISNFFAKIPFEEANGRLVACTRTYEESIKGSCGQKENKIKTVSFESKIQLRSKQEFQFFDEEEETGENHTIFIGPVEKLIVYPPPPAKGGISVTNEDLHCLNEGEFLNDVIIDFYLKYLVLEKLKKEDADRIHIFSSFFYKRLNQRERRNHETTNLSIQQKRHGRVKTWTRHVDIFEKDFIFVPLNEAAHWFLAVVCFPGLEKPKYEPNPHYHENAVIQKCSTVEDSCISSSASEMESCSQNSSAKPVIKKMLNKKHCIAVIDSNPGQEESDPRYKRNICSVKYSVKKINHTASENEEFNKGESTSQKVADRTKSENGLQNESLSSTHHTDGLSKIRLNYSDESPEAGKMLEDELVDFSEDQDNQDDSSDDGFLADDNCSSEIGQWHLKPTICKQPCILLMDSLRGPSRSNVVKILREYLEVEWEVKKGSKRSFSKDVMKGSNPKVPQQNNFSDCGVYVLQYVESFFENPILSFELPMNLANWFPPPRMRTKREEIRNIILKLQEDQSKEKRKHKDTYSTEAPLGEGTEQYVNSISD

Caspase-3 = biological target: T5, Caspase-3 (Homo sapiens, UniProt P42574); type: functional;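 further: Dose-response selectivity test against caspase-3 for candidate inhibitors of sentrin-specific proteases (SENPs)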
T5 sequence (P42574 whole entry): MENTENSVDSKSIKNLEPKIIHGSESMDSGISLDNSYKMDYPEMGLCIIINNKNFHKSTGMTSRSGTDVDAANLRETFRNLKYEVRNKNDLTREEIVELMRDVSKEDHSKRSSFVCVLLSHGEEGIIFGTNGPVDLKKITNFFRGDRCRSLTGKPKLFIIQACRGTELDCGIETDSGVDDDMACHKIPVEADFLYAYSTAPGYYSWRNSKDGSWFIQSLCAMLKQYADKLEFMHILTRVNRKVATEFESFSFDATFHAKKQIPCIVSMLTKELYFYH

[18] = viability of uninfected HEp-2 cells – cell-based, HTS, cytotoxicity control for RSV inhibitor project, dose response (AID 2410); type: functional; conditions: human respiratory syncytial virus
Protein skinhead-1 = biological target: T6, Protein skinhead-1 (Caenorhabditis elegans, UniProt P34707); type: functional
T6 sequence (P34707 whole entry): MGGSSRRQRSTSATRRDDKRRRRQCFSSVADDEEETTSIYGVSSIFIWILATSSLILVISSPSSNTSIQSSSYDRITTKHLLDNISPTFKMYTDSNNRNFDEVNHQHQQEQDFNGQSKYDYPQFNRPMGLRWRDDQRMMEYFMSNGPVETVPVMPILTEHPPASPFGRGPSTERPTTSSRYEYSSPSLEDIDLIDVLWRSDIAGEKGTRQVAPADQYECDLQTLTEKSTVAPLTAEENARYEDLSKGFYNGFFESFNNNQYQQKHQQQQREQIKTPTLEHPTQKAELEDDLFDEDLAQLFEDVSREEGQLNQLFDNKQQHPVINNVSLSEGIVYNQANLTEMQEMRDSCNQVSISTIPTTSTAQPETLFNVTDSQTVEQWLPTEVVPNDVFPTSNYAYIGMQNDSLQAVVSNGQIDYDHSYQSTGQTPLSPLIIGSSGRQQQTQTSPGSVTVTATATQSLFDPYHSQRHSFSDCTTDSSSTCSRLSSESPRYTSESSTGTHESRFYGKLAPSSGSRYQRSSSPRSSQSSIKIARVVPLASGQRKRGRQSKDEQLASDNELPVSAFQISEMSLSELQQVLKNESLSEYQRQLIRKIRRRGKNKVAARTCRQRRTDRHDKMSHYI
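Wherever AC50 is given: cells exposed to compound for roughly 70 hours or longer before luminescence read.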

## CCCOc1ccc(C(=O)CCN2CCCCC2)cc1
[1]
  CC50: > 40 µM (active)

## O=C(Nc1cccc(S(=O)(=O)N2CCCCC2)c1)Nc1ccc(Cl)cc1Cl
[2]
  EC50: 8.76 µM (active)
[3]
  EC50: 8.66 µM (active)

## COc1ccc([N+](=O)[O-])cc1NC(=O)c1ccccc1SC
[4]
  IC50: 23 µM (active)
[5]
  IC50: 1.79 µM (active)
[6]
  EC50: > 53 µM (inactive)

## CN(C)C1=NP(N(C)C)(N(C)C)=NC(c2ccccc2)=N1
[4]
  IC50: < 0.368 µM (active)
[5]
  IC50: > 20 µM (inactive)
[6]
  EC50: > 53 µM (inactive)

## Cc1cccc(C(=O)O/N=C/c2c(N3CCOCC3)n(C)c3ccccc23)c1
[7]
  EC50: > 150 µM (inactive)
[8]
  EC50: 10.8 µM (active)
[2]
  EC50: 2.35 µM (active)
[9]
  EC50: 0.729 µM (active)
[10]
  EC50: > 120 µM (not active)
[11]
  EC50: 3.22 µM (active)
[12]
  EC50: 9.98 µM (active)
[3]
  EC50: 2.47 µM (active)
[13]
  EC50: 8.96 µM (active)

## COc1ccc2oc(=N)c(C(=O)Nc3ccccc3)cc2c1
[1]
  CC50: > 40 µM (active)

## COCCn1c(=O)[nH]c(=O)c2c1nc(-c1ccc(-c3ccc(Cl)cc3[N+](=O)[O-])o1)n2Cc1ccccc1
[2]
  EC50: 19.4 µM (active)
[3]
  EC50: 17.3 µM (active)

## CCN1CCN(c2cc(-c3ccccc3)nc3cc(-c4cccc(F)c4)nn23)CC1
[2]
  EC50: 11.1 µM (active)
[3]
  EC50: 13.8 µM (active)
[14]
  AC50: 5.42 µM (active)

## Nc1ccccc1Oc1c(F)c(F)c(Oc2ccccc2N)c(F)c1F
[4]
  IC50: 4.08 µM (active)
[5]
  IC50: > 20 µM (inactive)
[6]
  EC50: > 53 µM (inactive)

## O=C(/C=C/c1ccccc1)c1ccc2ccccc2c1
Vero
  CC50: > 25 µM (active)

## c1cc2c(cc1C1CCCCC1)c1c3n2CCN=C3CCC1
Vero
  CC50: > 25 µM (active)

## Cc1ccc(-c2nc3sc4c(c3c(=O)n2N)CCCC4)cc1
[15]
  IC50: > 100 µM (inactive)
[16]
  IC50: 5.25 µM (active)
[17]
  IC50: 18.2 µM (active)
Caspase-3
  IC50: 12.7 µM (active)

## CCOc1ccc(/C=C/C(O)=C2/C(=O)N(C)C3(C)CC2c2ccccc2O3)cc1OC (stereo unspecified)
[18]
  CC50: 2.92 µM (active)
Vero
  CC50: 11.6 µM (active)
[14]
  AC50: 2.44 µM (active)

## COC(=O)CNC(c1ccccc1Cl)c1cc(Br)ccc1NC(=O)CCN1CCOCC1 (stereo unspecified)
[1]
  CC50: > 40 µM (active)
Protein skinhead-1
  IC50: > 100 µM (inactive)

## N#Cc1cccc(NC(=O)Nc2cccs2)c1
[4]
  IC50: < 0.368 µM (active)
[5]
  IC50: > 20 µM (inactive)
[6]
  EC50: > 53 µM (inactive)
